Measured values as given in publication PMC3784021 (Analytical biochemistry, 2013).

Target: T1, AMSH (Associated Molecule with the SH3 domain of STAM) (Homo sapiens, UniProt O95630)
T1 sequence (O95630 219-424): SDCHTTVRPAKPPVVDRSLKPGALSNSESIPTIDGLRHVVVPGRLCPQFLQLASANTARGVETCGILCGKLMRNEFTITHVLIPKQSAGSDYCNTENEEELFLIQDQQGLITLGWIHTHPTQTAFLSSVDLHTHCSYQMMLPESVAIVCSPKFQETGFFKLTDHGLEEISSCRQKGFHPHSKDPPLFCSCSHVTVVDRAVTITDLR
Test: FRET deubiquitinase assay with Lys63-linked diubiquitin probe
Format: biochemical

Structure (SMILES): CCN1C(=O)C=CC1=O [NEM, N-ethylmaleimide]
- IC50: 16.2 ± 3.1 µM
